Measurements: US20190071571A1, “COLORING COMPOSITION, DICHROIC DYE COMPOUND, LIGHT ABSORPTION ANISOTROPIC FILM, LAMINATE, AND IMAGE DISPLAY DEVICE” (FUJIFILM Corporation, priority 2016, published 2019)

Test: Solubility of dichroic dye compound in cyclopentanone (absorbance method)
Type: physicochemical
Details: for Solubility (evaluation grade) / Solubility (wt %): in cyclopentanone; for solubility (in words): solubility to solvent, comparison between examples
Experimental: The solubilities of the dichroic dye compounds D1 and D4 to D24 used in the examples and the comparative examples were measured as follows.
0.1 g of each dichroic dye compound was added to 2 g of cyclopentanone, and dissolved with ultrasonic waves. Then, 0.2 g of the solution portion was weighed and diluted with 45 g of cyclopentanone. The absorption spectrum of the cyclopentanone solution was measured to obtain an absorbance A (for solubility measurement).
Separately, 0.1 mg of each dichroic dye compound was completely dissolved in 100 g of cyclopentanone, and the absorption spectrum was measured to obtain an absorbance B (having a known concentration).
From data of the obtained two absorbances, the solubility was calculated by the following formula.
The evaluation standards are as follows.
A: The solubility is 2.5 mass % or greater.
B: The solubility is 1.0 mass % or greater and ess than 2.5 mass %.
C: The solubility is less than 1.0 mass %.

SMILES | Solubility (evaluation grade) | Solubility (wt %) | solubility (in words)
C=CC(=O)OCCCCOc1ccc(/N=N/c2ccc(/N=N/c3ccc(/N=N/c4ccc(OCCCCOC(=O)C=C)cc4)cc3C)cc2)cc1 [D1] | A (The solubility is 2.5 mass % or greater.) | 4.5 | more excellent solubility
C=CC(=O)OCCCCOc1ccc(/N=N/c2ccc(/N=N/c3ccc(OCCCCOC(=O)C=C)c(C)c3)cc2)cc1 [D5] | A (The solubility is 2.5 mass % or greater.) | 6.8 | –
C=CC(=O)OCCOc1ccc(/N=N/c2ccc(/N=N/c3ccc(/N=N/c4ccc(OCCOC(=O)C=C)cc4)cc3C)cc2)cc1 [D9] | A (The solubility is 2.5 mass % or greater.) | 4.3 | –
C=CC(=O)OCCCCOc1ccc(N=Nc2ccc(N=Nc3ccc(N=Nc4ccc(OCCCCOC(=O)C=C)cc4OC)cc3C)cc2)c(OC)c1 [D16] | A (The solubility is 2.5 mass % or greater.) | 5.0 | more excellent solubility
C=CC(=O)OCCCCOc1ccc(N=Nc2ccc(N=Nc3ccc(N=Nc4ccc(OCCCCOC(=O)C=C)cc4)c(OC)c3)c(OC)c2)cc1 [D14] | A (The solubility is 2.5 mass % or greater.) | 3.1 | –
C=CC(=O)OCCCCOc1ccc(N=Nc2ccc(N=Nc3ccc(N=Nc4ccc(OCCCCOC(=O)C=C)cc4OCCOC)cc3C)cc2)c(OCCOC)c1 [D20] | A (The solubility is 2.5 mass % or greater.) | >5 | –
C=CC(=O)OCCCCOc1ccc(/N=N/c2ccc(/N=N/c3ccc(/N=N/c4ccc(OCCCCCCC)cc4)cc3)c(C)c2)cc1 [D10] | A (The solubility is 2.5 mass % or greater.) | 2.8 | –
C=CC(=O)OCCCCOc1ccc(/N=N/c2ccc(/N=N/c3ccc(OCCCCOC(=O)C=C)cc3C)cc2)cc1 [D6] | A (The solubility is 2.5 mass % or greater.) | 18 | more excellent solubility
C=CC(=O)OCCCCOc1ccc(/N=N/c2ccc(/N=N/c3ccc(/N=N/c4ccc(OCCCCOC(=O)C=C)cc4)c4ccccc34)cc2)cc1 [D13, reference compound] | B (The solubility is 1.0 mass % or greater and ess than 2.5 mass %.) | 1.5 | –
C=CC(=O)OCCCCOc1ccc(/N=N/c2ccc(/N=N/c3ccc(OCCCCOC(=O)C=C)cc3)cc2)cc1 [D4] | A (The solubility is 2.5 mass % or greater.) | 5.7 | –
C=CC(=O)OCCCCOc1ccc(/N=N/c2ccc(/N=N/c3ccc(/N=N/c4ccc(OCCCCOC(=O)C=C)cc4)cc3OCCOCCOCCOC)cc2)cc1 [D8] | A (The solubility is 2.5 mass % or greater.) | 4.8 | more excellent solubility
C=CC(=O)OCCCCOc1ccc(N=Nc2ccc(N=Nc3ccc(N=Nc4ccc(OCCCCOC(=O)C=C)cc4O)cc3)c(C)c2)cc1 [D21] | B (The solubility is 1.0 mass % or greater and ess than 2.5 mass %.) | 1.5 | –
C=CC(=O)OCCCCOc1ccc(N=Nc2ccc(N=Nc3ccc(N=Nc4ccc(OCCCCOC(=O)C=C)cc4)c(C)c3)c(OC)c2)cc1 [D17] | A (The solubility is 2.5 mass % or greater.) | 3.2 | –
C=CC(=O)OCCCCOc1ccc(N=Nc2ccc(N=Nc3ccc(N=Nc4ccc(N=Nc5ccc(N=Nc6ccc(OCCCCOC(=O)C=C)c(C(F)(F)F)c6)c(C)c5)cc4)c(C)c3)cc2)cc1C(F)(F)F [D23] | B (The solubility is 1.0 mass % or greater and ess than 2.5 mass %.) | 1.2 | –
C=CC(=O)OCCCCOc1ccc(/N=N/c2ccc(/N=N/c3ccc(OCCCCOC(=O)C=C)c(C(F)(F)F)c3)cc2)cc1 [D7] | A (The solubility is 2.5 mass % or greater.) | 42 | more excellent solubility
C=CC(=O)OCCCCOc1ccc(N=Nc2ccc(N=Nc3ccc(N=Nc4ccc(OCCCCOC(=O)C=C)c(C(F)(F)F)c4)cc3)cc2)cc1 [D19] | A (The solubility is 2.5 mass % or greater.) | >5 | –
C=CC(=O)OCCCCOc1ccc(N=Nc2ccc(N=Nc3ccc(N=Nc4ccc(N=Nc5ccc(OCCCCOC(=O)C=C)cc5)cc4)cc3)cc2)cc1 [D22, reference compound] | C (The solubility is less than 1.0 mass %.) | 0.3 | –
Cc1cc(/N=N/c2ccc(OCCCCOCC3(C)COC3)cc2)ccc1/N=N/c1ccc(/N=N/c2ccc(OCCCCOCC3(C)COC3)cc2)cc1 [D11] | A (The solubility is 2.5 mass % or greater.) | 3.3 | –
C=CC(=O)OCCCCOc1ccc(N=Nc2ccc(N=Nc3ccc(N=Nc4ccc(OCCCCOC(=O)C=C)c(OC)c4)cc3C)cc2)cc1OC [D15] | A (The solubility is 2.5 mass % or greater.) | 4.3 | –
C=CC(=O)OCCCCOc1ccc(/N=N/c2ccc(/N=N/c3ccc(/N=N/c4ccc(OCCCCOC(=O)C=C)cc4)cc3)cc2)cc1 [D12, reference compound] | C (The solubility is less than 1.0 mass %.) | 0.8 | the solubility to a solvent deteriorates
C=CC(=O)OCCCCOc1ccc(N=Nc2ccc(N=Nc3ccc(N=Nc4ccc(N=Nc5ccc(OCCCCOC(=O)C=C)cc5)c(OC)c4)c(OC)c3)cc2)cc1 [D18] | B (The solubility is 1.0 mass % or greater and ess than 2.5 mass %.) | 2.1 | –
CCCCc1ccc(N=Nc2ccc(N=Nc3c(C)cc(N=Nc4cc(C)c(N=Nc5ccc(N=Nc6ccc(CCCC)cc6)cc5)c(C)c4)cc3C)cc2)cc1 [D24, reference compound] | C (The solubility is less than 1.0 mass %.) | <0.1 | –
